Data reported in ChEMBL document CHEMBL1201862, “PubChem BioAssay data set” (2004).
Activity calls are given as the source filed them. Cut-off read from the data, not from the text of the source, for most assays here: actives have a measured IC50 and inactives only a lower limit.

Tests used:
[1] = biological target: T1, Apoptotic protease-activating factor 1 (Homo sapiens, UniProt O14727); assay type: functional
T1 sequence (O14727 whole entry): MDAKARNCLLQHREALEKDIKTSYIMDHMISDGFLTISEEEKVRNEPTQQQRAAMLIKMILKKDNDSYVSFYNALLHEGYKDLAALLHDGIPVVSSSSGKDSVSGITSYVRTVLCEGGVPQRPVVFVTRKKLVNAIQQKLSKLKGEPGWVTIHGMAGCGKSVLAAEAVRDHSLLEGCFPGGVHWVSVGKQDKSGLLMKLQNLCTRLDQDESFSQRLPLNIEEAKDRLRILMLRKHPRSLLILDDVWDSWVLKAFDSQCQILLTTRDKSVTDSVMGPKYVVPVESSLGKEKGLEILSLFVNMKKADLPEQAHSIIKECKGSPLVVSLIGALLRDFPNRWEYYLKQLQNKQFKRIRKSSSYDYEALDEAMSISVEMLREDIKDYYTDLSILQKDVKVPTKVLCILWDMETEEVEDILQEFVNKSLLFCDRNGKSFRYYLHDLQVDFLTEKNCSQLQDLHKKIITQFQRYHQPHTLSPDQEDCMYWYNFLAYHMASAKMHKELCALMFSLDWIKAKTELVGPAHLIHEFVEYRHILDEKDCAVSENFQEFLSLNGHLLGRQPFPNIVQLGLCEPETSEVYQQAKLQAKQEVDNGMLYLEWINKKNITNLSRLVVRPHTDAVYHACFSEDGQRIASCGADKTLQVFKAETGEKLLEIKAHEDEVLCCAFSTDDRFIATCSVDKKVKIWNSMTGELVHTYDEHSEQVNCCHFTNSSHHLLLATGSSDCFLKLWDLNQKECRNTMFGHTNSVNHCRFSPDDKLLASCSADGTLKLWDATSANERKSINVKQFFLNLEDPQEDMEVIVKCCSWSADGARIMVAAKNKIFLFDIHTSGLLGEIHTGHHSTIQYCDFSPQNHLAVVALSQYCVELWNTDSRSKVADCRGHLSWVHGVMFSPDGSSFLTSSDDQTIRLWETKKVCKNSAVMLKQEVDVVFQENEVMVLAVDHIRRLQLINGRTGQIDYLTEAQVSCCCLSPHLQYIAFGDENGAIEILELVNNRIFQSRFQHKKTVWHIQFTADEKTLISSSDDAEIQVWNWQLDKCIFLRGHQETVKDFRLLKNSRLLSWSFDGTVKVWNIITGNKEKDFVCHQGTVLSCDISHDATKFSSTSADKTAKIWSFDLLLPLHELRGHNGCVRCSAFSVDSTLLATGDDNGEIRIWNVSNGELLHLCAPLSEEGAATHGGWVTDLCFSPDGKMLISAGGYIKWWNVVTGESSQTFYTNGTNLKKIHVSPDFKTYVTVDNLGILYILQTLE

[2] = biological target: T2, Tyrosyl-DNA phosphodiesterase 2 (Homo sapiens, UniProt O95551); test: potency against TDP2 phosphodiesterase activity – biochemical, epi absorbance, IC50, dose response (AID 743297)
T2 sequence (O95551 whole entry): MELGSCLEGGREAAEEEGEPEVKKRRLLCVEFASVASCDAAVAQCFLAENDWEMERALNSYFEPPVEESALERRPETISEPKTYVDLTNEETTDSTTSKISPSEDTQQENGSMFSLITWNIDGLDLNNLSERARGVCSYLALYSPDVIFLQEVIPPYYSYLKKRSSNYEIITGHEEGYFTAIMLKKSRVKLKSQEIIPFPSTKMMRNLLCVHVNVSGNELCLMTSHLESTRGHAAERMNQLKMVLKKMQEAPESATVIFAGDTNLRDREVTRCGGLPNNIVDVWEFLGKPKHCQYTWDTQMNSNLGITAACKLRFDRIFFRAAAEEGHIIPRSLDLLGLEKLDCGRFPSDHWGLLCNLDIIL

[3] = biological target: T3, Caspase-3 (Homo sapiens, UniProt P42574); assay type: functional;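 note: Dose-response selectivity test against caspase-3 for candidate inhibitors of sentrin-specific proteases (SENPs)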
T3 sequence (P42574 whole entry): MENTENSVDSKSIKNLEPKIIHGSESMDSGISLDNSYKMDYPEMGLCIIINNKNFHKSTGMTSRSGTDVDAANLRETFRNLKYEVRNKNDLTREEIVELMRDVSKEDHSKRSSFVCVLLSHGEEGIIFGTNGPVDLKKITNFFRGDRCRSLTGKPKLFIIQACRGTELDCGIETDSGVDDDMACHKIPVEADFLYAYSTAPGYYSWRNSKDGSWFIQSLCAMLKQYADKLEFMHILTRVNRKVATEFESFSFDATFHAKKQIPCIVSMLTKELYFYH

Measured: IC50

CC(=O)N(/N=C1\Sc2ccccc2C1=O)c1cccc(C)c1
active: [1] 4.46 µM | [2] 6.48 µM | [3] 65.8 µM
